Assay results as given in ChEMBL document CHEMBL1201862, “PubChem BioAssay data set” (2004).
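Exposure lasted 48 hours, with cells grown in 96-well plates and compounds tested at five concentrations. GI50: concentration for 50% inhibition of growth.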 Calls of active or inactive are those of the source. Cut-off read from the data, not from the text of the source: active = GI50 up to about 1.1 µM and inactive = higher.

Experiments:
Test in all cases: inhibition of tumour cell growth, NCI panel, 48 h
786-0 = system: 786-0
A498 = system: A498
ACHN = system: ACHN
BT-549 = system: BT-549
CAKI-1 = system: CAKI-1
CCRF-CEM = system: CCRF-CEM
COLO 205 = system: COLO 205
DU-145 = system: DU-145
EKVX = system: EKVX
HCC 2998 = system: HCC 2998
HCT-116 = system: HCT-116
HCT-15 = system: HCT-15
HL-60 = system: HL-60
HOP-62 = system: HOP-62
HOP-92 = system: HOP-92
HT-29 = system: HT-29
Hs-578T = system: Hs-578T
IGROV-1 = system: IGROV-1
K562 = system: K562
KM12 = system: KM12
LOX IMVI = system: LOX IMVI
M14 = system: M14
MCF7 = system: MCF7
MDA-MB-231 = system: MDA-MB-231
MDA-MB-435 = system: MDA-MB-435
MDA-N = system: MDA-N
MOLT-4 = system: MOLT-4
Malme-3M = system: Malme-3M
NCI-H226 = system: NCI-H226
NCI-H23 = system: NCI-H23
NCI-H460 = system: NCI-H460
NCI-H522 = system: NCI-H522
NCI/ADR-RES = system: NCI/ADR-RES
OVCAR-3 = system: OVCAR-3
OVCAR-4 = system: OVCAR-4
OVCAR-5 = system: OVCAR-5
OVCAR-8 = system: OVCAR-8
PC-3 = system: PC-3
RPMI-8226 = system: RPMI-8226
RXF 393 = system: RXF 393
SF-268 = system: SF-268
SF-295 = system: SF-295
SF-539 = system: SF-539
SK-MEL-2 = system: SK-MEL-2
SK-OV-3 = system: SK-OV-3
SN12C = system: SN12C
SNB-19 = system: SNB-19
SNB-75 = system: SNB-75
SW-620 = system: SW-620
T47D = system: T47D
TK-10 = system: TK-10
U-251 = system: U-251
UACC-257 = system: UACC-257
UACC-62 = system: UACC-62
A549 = system: A549
SK-MEL-28 = system: SK-MEL-28
SK-MEL-5 = system: SK-MEL-5
SR = system: SR
UO-31 = system: UO-31

Question: O=c1cc(N2CCCC2)[nH]c(=O)n1-c1cccc(C(F)(F)F)c1 was tested. Which GI50 (786-0) did it give?
Answer: > 100 µM (inactive)

Question: And the GI50 (A498)?
Answer: > 100 µM (inactive)

Question: What about the GI50 (ACHN) of the same compound?
Answer: > 100 µM (inactive)

Question: What about the GI50 (BT-549) of the same compound?
Answer: > 100 µM (inactive)

Question: What about the GI50 (CAKI-1) of the same compound?
Answer: > 100 µM (inactive)

Question: And the GI50 (CCRF-CEM)?
Answer: > 100 µM (inactive)

Question: What about the GI50 (COLO 205) of the same compound?
Answer: > 100 µM (inactive)

Question: And the GI50 (DU-145)?
Answer: > 100 µM (inactive)

Question: What about the GI50 (EKVX) of the same compound?
Answer: > 100 µM (inactive)

Question: And the GI50 (HCC 2998)?
Answer: > 100 µM (inactive)

Question: And the GI50 (HCT-116)?
Answer: > 100 µM (inactive)

Question: What about the GI50 (HCT-15) of the same compound?
Answer: > 100 µM

Question: What about the GI50 (HL-60) of the same compound?
Answer: > 100 µM (inactive)

Question: And the GI50 (HOP-62)?
Answer: > 100 µM (inactive)

Question: And the GI50 (HOP-92)?
Answer: > 100 µM (inactive)

Question: What about the GI50 (HT-29) of the same compound?
Answer: > 100 µM (inactive)

Question: And the GI50 (Hs-578T)?
Answer: > 100 µM (inactive)

Question: What about the GI50 (IGROV-1) of the same compound?
Answer: > 100 µM (inactive)

Question: And the GI50 (K562)?
Answer: > 100 µM (inactive)

Question: And the GI50 (KM12)?
Answer: > 100 µM (inactive)

Question: And the GI50 (LOX IMVI)?
Answer: > 100 µM (inactive)

Question: And the GI50 (M14)?
Answer: > 100 µM (inactive)

Question: And the GI50 (MCF7)?
Answer: > 100 µM (inactive)

Question: And the GI50 (MDA-MB-231)?
Answer: > 100 µM (inactive)

Question: What about the GI50 (MDA-MB-435) of the same compound?
Answer: > 100 µM (inactive)

Question: What about the GI50 (MDA-N) of the same compound?
Answer: > 100 µM (inactive)

Question: What about the GI50 (MOLT-4) of the same compound?
Answer: > 100 µM (inactive)

Question: And the GI50 (Malme-3M)?
Answer: > 100 µM (inactive)

Question: And the GI50 (NCI-H226)?
Answer: > 100 µM (inactive)

Question: What about the GI50 (NCI-H23) of the same compound?
Answer: > 100 µM (inactive)

Question: And the GI50 (NCI-H460)?
Answer: > 100 µM (inactive)

Question: What about the GI50 (NCI-H522) of the same compound?
Answer: > 100 µM (inactive)

Question: And the GI50 (NCI/ADR-RES)?
Answer: > 100 µM (inactive)

Question: What about the GI50 (OVCAR-3) of the same compound?
Answer: > 100 µM (inactive)

Question: And the GI50 (OVCAR-4)?
Answer: > 100 µM (inactive)

Question: What about the GI50 (OVCAR-5) of the same compound?
Answer: > 100 µM (inactive)

Question: What about the GI50 (OVCAR-8) of the same compound?
Answer: > 100 µM (inactive)

Question: What about the GI50 (PC-3) of the same compound?
Answer: > 100 µM (inactive)

Question: And the GI50 (RPMI-8226)?
Answer: 76.4 µM (inactive)

Question: What about the GI50 (RXF 393) of the same compound?
Answer: > 100 µM (inactive)

Question: What about the GI50 (SF-268) of the same compound?
Answer: > 100 µM (inactive)

Question: And the GI50 (SF-295)?
Answer: > 100 µM (inactive)

Question: And the GI50 (SF-539)?
Answer: > 100 µM (inactive)

Question: What about the GI50 (SK-MEL-2) of the same compound?
Answer: > 100 µM (inactive)

Question: What about the GI50 (SK-OV-3) of the same compound?
Answer: > 100 µM (inactive)

Question: And the GI50 (SN12C)?
Answer: > 100 µM (inactive)

Question: And the GI50 (SNB-19)?
Answer: > 100 µM (inactive)

Question: And the GI50 (SNB-75)?
Answer: > 100 µM (inactive)

Question: And the GI50 (SW-620)?
Answer: > 100 µM (inactive)

Question: And the GI50 (T47D)?
Answer: > 100 µM (inactive)

Question: What about the GI50 (TK-10) of the same compound?
Answer: > 100 µM (inactive)

Question: What about the GI50 (U-251) of the same compound?
Answer: > 100 µM (inactive)

Question: And the GI50 (UACC-257)?
Answer: > 100 µM (inactive)

Question: And the GI50 (UACC-62)?
Answer: > 100 µM (inactive)

Question: With CC(C)=C1C(=O)C[C@@]2(C)C[C@H]3OC3(C)CC/C=C(/C)CCC12 (stereo partly specified) as the compound, how does the GI50 (A549) read?
Answer: 75.2 µM (inactive)

Question: What about the GI50 (BT-549) of the same compound?
Answer: 99.5 µM (inactive)

Question: And the GI50 (CCRF-CEM)?
Answer: 58.7 µM (inactive)

Question: And the GI50 (DU-145)?
Answer: > 100 µM (inactive)

Question: And the GI50 (EKVX)?
Answer: 48.2 µM (inactive)

Question: What about the GI50 (HCC 2998) of the same compound?
Answer: > 100 µM (inactive)

Question: And the GI50 (HCT-116)?
Answer: 65 µM (inactive)

Question: And the GI50 (HCT-15)?
Answer: 75.9 µM

Question: And the GI50 (HL-60)?
Answer: 21.8 µM (inactive)

Question: And the GI50 (HT-29)?
Answer: 53.7 µM (inactive)

Question: What about the GI50 (Hs-578T) of the same compound?
Answer: > 100 µM (inactive)

Question: What about the GI50 (K562) of the same compound?
Answer: 50.6 µM (inactive)

Question: And the GI50 (MCF7)?
Answer: 71.9 µM (inactive)

Question: And the GI50 (MDA-MB-231)?
Answer: > 100 µM (inactive)

Question: And the GI50 (MDA-MB-435)?
Answer: 64 µM (inactive)

Question: What about the GI50 (MDA-N) of the same compound?
Answer: > 100 µM (inactive)

Question: And the GI50 (MOLT-4)?
Answer: 35.4 µM (inactive)

Question: What about the GI50 (Malme-3M) of the same compound?
Answer: > 100 µM (inactive)

Question: And the GI50 (NCI-H226)?
Answer: 69.7 µM (inactive)

Question: What about the GI50 (NCI-H23) of the same compound?
Answer: 91.8 µM (inactive)

Question: And the GI50 (NCI-H460)?
Answer: 62.4 µM (inactive)

Question: And the GI50 (NCI-H522)?
Answer: 27.8 µM (inactive)

Question: What about the GI50 (NCI/ADR-RES) of the same compound?
Answer: 18.3 µM (inactive)

Question: And the GI50 (OVCAR-3)?
Answer: 56.8 µM (inactive)

Question: And the GI50 (OVCAR-4)?
Answer: 90.8 µM (inactive)

Question: And the GI50 (PC-3)?
Answer: 25.2 µM (inactive)

Question: And the GI50 (RXF 393)?
Answer: > 10 µM (inactive)

Question: And the GI50 (SK-MEL-28)?
Answer: > 100 µM (inactive)

Question: What about the GI50 (SK-MEL-5) of the same compound?
Answer: > 100 µM (inactive)

Question: And the GI50 (SN12C)?
Answer: > 100 µM (inactive)

Question: And the GI50 (SNB-75)?
Answer: 80 µM (inactive)

Question: What about the GI50 (SR) of the same compound?
Answer: 70.6 µM (inactive)

Question: And the GI50 (T47D)?
Answer: 49.4 µM (inactive)

Question: What about the GI50 (TK-10) of the same compound?
Answer: > 100 µM (inactive)

Question: What about the GI50 (UACC-257) of the same compound?
Answer: 50.4 µM (inactive)

Question: And the GI50 (UACC-62)?
Answer: 50.5 µM (inactive)

Question: What about the GI50 (UO-31) of the same compound?
Answer: 68.2 µM (inactive)
